# Experimental data as given in ChEMBL document CHEMBL2034915, “Ring Structure and Aromatic Substituent Effects on the pK a of the Benzoxaborole Pharmacophore” (ACS Med Chem Lett, 2012).
# Active and inactive are the calls of the source. No cut-off for these calls is given here.
# Columns and labels:
# [1] = Dissociation constant, pKa of the compound in aqueous solution by spectrophotometry; format: physicochemical
# [2] = Binding affinity to adenosine monophosphate in phosphate buffer by ARS competition assay at pH 7.4
# [3] = Dissociation constant, pKa of the compound in aqueous solution by [11]B-NMR analysis; format: physicochemical
Compound,pKa [1],Activity [2],pKa [3]
CC1(C)OB(O)c2ccccc21,8.32,–,–
OB1OCc2cc(C(F)(F)F)ccc21,–,Active,–
OB1OCCc2ccccc21 [BENZOXABORIN],8.4,–,8.4
OB1OCc2ccccc21 [BENZOXABOROLE],7.34,Active,7.2
